Test results as given in US10662203B2, “Pyrido[2,3-b]indole compounds for the treatment and prophylaxis of bacterial infection” (Hoffmann-La Roche Inc., priority 2017, dated 2020).
Converted amounts (≈) assume the structure as drawn.

Assays:
[1] = system: A. baumannii (ATCC17978); assay: 50% growth inhibitory concentration (IC50) determination assay; type: cell-based; details: Iso-Sensitest broth, 0.098 = detection limit
Procedure, shortened: (§1)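 Growth was tracked as optical density at 600 nm every 20 minutes for 16 h at 35±2° C, giving IC50 values. Inocula of ~5×10^5 CFU/mL in Iso-Sensitest broth faced two-fold compound dilutions spanning 50 to 0.097 μM final.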

[2] = system: K. pneumoniae (ATCC10031); assay: as above; type: cell-based; details: Iso-Sensitest broth, 0.098 = detection limit
Procedure, shortened: as §1

[3] = system: S. aureus (ATCC29213); assay: as above; type: cell-based; details: Iso-Sensitest broth, 0.098 = detection limit
Procedure, shortened: as §1

[4] = Lyophilisation solubility assay (LYSA); type: physicochemical; details: phosphate buffer, pH 6.5, aqueous buffer, thermodynamic from solid, 0.05 M phosphate buffer, HPLC-UV
Procedure, shortened: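 Read-out is HPLC-UV of the filtered solution and its 1/10 dilution. The dried residue of a 10 mM DMSO stock was redissolved in 0.05 M pH 6.5 phosphate buffer, then stirred 1 h, shaken 2 h and held overnight. Run in duplicate.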

[5] = Cytotoxicity assay (HepG2, CellTiter-Blue cell viability); type: cell-based; details: human; HepG2 cells, 3 days treatment; "*": the detection limit; read-out: CC50
Procedure: The cytotoxicity of compounds of present invention was assessed by HepG2 assay. HepG2 cells (ATCC HB-8065™) were seeded into 96-well plates (1.2×10^4 cells per well) and treated with compounds for 3 days, cell viability was measured at day 3 post compound treatment using the CellTiter-Blue® Cell Viability Assay (Promega, Cat. No. G8082). 20 μL of Cell titer blue buffer were added to each well of the cells, which were incubated for 3 hours at 37° C., and the fluorescence value was measured by a plate reader (Molecular Device SpectraMax M2). The CC50 value of each compound is plotted with GraphPad Prism using four parameter logistic equation.

[6] = Acinetobacter baumannii, ATCC17978, A. baumannii ATCC17978

| SMILES | IC50 [1, 6] [µM] | IC50 ([2]; Klebsiella pneumoniae) [µM] | IC50 ([3]; Staphylococcus aureus) [µM] | solubility thermodynamic [4] [µg/mL] | CC50 at 3 days [5] [nM] | IC50 ([1]; A. baumannii ATCC17978) [µM] | IC50 [2] [µM] | IC50 [3] [µM] |
| --- | --- | --- | --- | --- | --- | --- | --- | --- |
| CNc1cc(F)c(F)c2c1[nH]c1ncc(-c3cnc4c(c3)c(=O)c(C(=O)O)cn4CC(C)(C)N)c(N3CCOCC3)c12 [Example 1.38] | 0.883 | < 0.098 | 0.181 | 15 (≈ 26 µM) | > 100000 |  |  |  |
| CNc1cc(F)c(F)c2c1[nH]c1ncc(-c3cnc4c(c3)c(=O)c(C(=O)O)cn4C)c(N3CC4CN(C)C[C@@H]4C3)c12 (some centres unmarked) [Example 1.227] | 0.294 | < 0.098 | 0.132 | 12 (≈ 21.4 µM) | 28000 |  |  |  |
| CNc1cc(F)c(F)c2c1[nH]c1ncc(-c3cnc4c(c3)c(=O)c(C(=O)O)cn4C)c(N3CCC4(CCCN4C)CC3)c12 [Example 1.230] | 0.376 | < 0.098 | 0.099 | 19 (≈ 32.3 µM) | > 100000 |  |  |  |
| CNc1cc(F)cc2c1[nH]c1ncc(-c3cnc4c(c3)c(=O)c(C(=O)O)cn4C)c(N3CC[C@@H]4C(CCN4C)C3)c12 (some centres unmarked) [Example 1.188] | 0.307 | < 0.098 | 0.232 | 20 (≈ 36 µM) | 51600 |  |  |  |
| CCNc1cc(F)c(F)c2c1[nH]c1ncc(-c3cnc4c(c3)c(=O)c(C(=O)O)cn4C)c(N3CCC(CN(C)C)C3)c12 (centres unmarked) [Example 1.106] | 0.244 | < 0.098 | < 0.098 | 19 (≈ 33 µM) | 91300 |  |  |  |
| CNc1cc(F)cc2c1[nH]c1ncc(-c3cnc4c(c3)c(=O)c(C(=O)O)cn4C)c(N3CCO[C@@H](CN(C)C)C3)c12 [Example 3.02A] | 0.268 | < 0.098 | < 0.098 | 480 (≈ 858 µM) | > 100000 |  |  |  |
| CNc1cc(F)c(F)c2c1[nH]c1ncc(-c3cnc4c(c3)c(=O)c(C(=O)O)cn4C)c(N3CCN4CCOCC4C3)c12 (centres unmarked) [Example 1.134] |  |  |  | 11 (≈ 19.1 µM) | > 100000 |  |  |  |
| CNc1cc(F)cc2c1[nH]c1ncc(-c3cnc4c(c3)c(=O)c(C(=O)O)cn4C(C)CO)c(N3CCOCC3)c12 (centres unmarked) [Example 1.45] | 0.472 | < 0.098 | < 0.098 |  | > 100000 |  |  |  |
| CNc1cc(F)c(F)c2c1[nH]c1ncc(-c3cnc4c(c3)c(=O)c(C(=O)O)cn4NC)c(N3CC[C@H]4CN(C)C4C3)c12 (some centres unmarked) [Example 1.214] | 0.111 | < 0.098 | < 0.098 |  | 40800 |  |  |  |
| CNCCn1cc(C(=O)O)c(=O)c2cc(-c3cnc4[nH]c5c(NC)cc(F)c(F)c5c4c3N(C)C)cnc21 [Example 1.26] | 0.569 | < 0.098 | < 0.098 |  | 32500 |  |  |  |
| CNc1cc(F)c(F)c2c1[nH]c1ncc(-c3cnc4c(c3)c(=O)c(C(=O)O)cn4C)c(N3CC[C@H](CO)C3)c12 [Example 1.164] | 0.472 | < 0.098 | < 0.098 |  | 99300 |  |  |  |
| CNc1cc(F)c(F)c2c1[nH]c1ncc(-c3cnc4c(c3)c(=O)c(C(=O)O)cn4C3CCNC3)c(N(C)C)c12 (centres unmarked) [Example 1.150] |  |  |  |  | > 100000 | 0.273 | < 0.098 | < 0.098 |
| CNc1cc(F)c(F)c2c1[nH]c1ncc(-c3cnc4c(c3)c(=O)c(C(=O)O)cn4CC3CCN(C)CC3)c(N(C)C)c12 [Example 1.32] | 0.353 | < 0.098 | < 0.098 |  | 50100 |  |  |  |
| CNc1cc(F)c(F)c2c1[nH]c1ncc(-c3cnc4c(c3)c(=O)c(C(=O)O)cn4C(C)CO)c(N3CCOCC3)c12 (centres unmarked) [Example 1.51] | 0.533 | < 0.098 | < 0.098 |  | > 100000 |  |  |  |
| CNc1cc(F)c(F)c2c1[nH]c1ncc(-c3cnc4c(c3)c(=O)c(C(=O)O)cn4C)c(N3CC[C@@H](CO)C3)c12 [Example 1.165] | 0.336 | < 0.098 | < 0.098 |  | > 100000 |  |  |  |
| CNc1cc(F)c(F)c2c1[nH]c1ncc(-c3cnc4c(c3)c(=O)c(C(=O)O)cn4C)c(N3C[C@H](C)[C@@H](O)C3)c12 [Example 1.83] | 0.519 | < 0.098 | < 0.098 |  | 26400 |  |  |  |
| CNc1cc(F)c(F)c2c1[nH]c1ncc(-c3cnc4c(c3)c(=O)c(C(=O)O)cn4C3CCNC3)c(N3CCSCC3)c12 (centres unmarked) [Example 1.98] | 0.744 | 0.107 | 8.84 |  | > 100000 |  |  |  |
| [2H]C([2H])([2H])Nc1cc(F)c(F)c2c1[nH]c1ncc(-c3cnc4c(c3)c(=O)c(C(=O)O)cn4C3CCNC3)c(N(C)C)c12 (centres unmarked) [Example 1.64] | 0.32 | < 0.098 | < 0.098 |  | > 100000 |  |  |  |
| CCNc1cc(F)c(F)c2c1[nH]c1ncc(-c3cnc4c(c3)c(=O)c(C(=O)O)cn4C3CCNC3)c(N(C)C)c12 (centres unmarked) [Example 1.140] | 0.631 | < 0.098 | < 0.098 |  | > 100000 |  |  |  |
| CNc1cc(F)cc2c1[nH]c1ncc(-c3cnc4c(c3)c(=O)c(C(=O)O)cn4C)c(N3CCC(CO)C3)c12 (centres unmarked) [Example 1.54] | 0.461 | < 0.098 | < 0.098 |  | > 100000 |  |  |  |
| CNc1cc(F)c(F)c2c1[nH]c1ncc(-c3cnc4c(c3)c(=O)c(C(=O)O)cn4C)c(N3CCC4(CCCN4C)C3)c12 (centres unmarked) [Example 1.239] | 0.104 | < 0.098 | < 0.098 |  | 32900 |  |  |  |

More lines, in order of falling IC50 [1, 6], values ahead:

| IC50 [1, 6] [µM] | IC50 ([2]; Klebsiella pneumoniae) [µM] | IC50 ([3]; Staphylococcus aureus) [µM] | solubility thermodynamic [4] [µg/mL] | SMILES | CC50 at 3 days [5] [nM] | IC50 ([1]; A. baumannii ATCC17978) [µM] | IC50 [2] [µM] | IC50 [3] [µM] |
| --- | --- | --- | --- | --- | --- | --- | --- | --- |
| 0.748 | < 0.098 | < 0.098 |  | CNc1cc(F)c(F)c2c1[nH]c1ncc(-c3cnc4c(c3)c(=O)c(C(=O)O)cn4C)c(N3C[C@H](O)[C@@H](F)C3)c12 [Example 1.82] | > 100000 |  |  |  |
| 0.658 | < 0.098 | < 0.098 |  | CNc1cc(F)cc2c1[nH]c1ncc(-c3cnc4c(c3)c(=O)c(C(=O)O)cn4C)c(N3CCC(C)(O)C3)c12 (centres unmarked) [Example 1.59] | 27900 |  |  |  |
| 0.437 | < 0.098 | < 0.098 |  | CNc1cc(F)c(F)c2c1[nH]c1ncc(-c3cnc4c(c3)c(=O)c(C(=O)O)cn4CC3COCCN3)c(N(C)C)c12 (centres unmarked) [Example 1.03] | 38100 |  |  |  |
| 0.424 | < 0.098 | < 0.098 |  | CNc1cc(F)cc2c1[nH]c1ncc(-c3cnc4c(c3)c(=O)c(C(=O)O)cn4[C@@H](C)CO)c(N3CCOCC3)c12 [Example 1.216] | > 100000 |  |  |  |
| 0.411 | < 0.098 | 0.216 | 700 (≈ 1220 µM) | CNc1cc(F)cc2c1[nH]c1ncc(-c3cnc4c(c3)c(=O)c(C(=O)O)cn4C)c(N3CCOCC(CN(C)C)C3)c12 (centres unmarked) [Example 1.90] | > 100000 |  |  |  |
| 0.283 | < 0.098 | 0.162 | 695 (≈ 1280 µM) | CNc1cc(F)cc2c1[nH]c1ncc(-c3cnc4c(c3)c(=O)c(C(=O)O)cn4C)c(N3CCC[C@H]3CN(C)C)c12 [Example 1.162] | 67600 |  |  |  |
| 0.236 | < 0.098 | < 0.098 | 104 (≈ 176 µM) | CNc1cc(F)c(F)c2c1[nH]c1ncc(-c3cnc4c(c3)c(=O)c(C(=O)O)cn4NC)c(N3CCCC(CN(C)C)C3)c12 (centres unmarked) [Example 1.186] | 45600 |  |  |  |
| 0.19 |  |  | 425 (≈ 687 µM) | CNc1cc(F)c(F)c2c1[nH]c1ncc(-c3cnc4c(c3)c(=O)c(C(=O)O)cn4NCCOC)c(N3CC[C@H]4CN(C)C[C@H]43)c12 (relative stereo) [Example 5.01, 6-[4-[cis-5-methyl-2,3,3a,4,6,6a-hexahydropyrrolo[2,3-c]pyrrol-1-yl]-5,6-difluoro-8-(methylamino)-9H-pyrido[2,3-b]indol-3-yl]-1-(2-methoxyethylamino)-4-oxo-1,8-naphthyridine-3-carboxylic acid] | 43500 |  |  |  |
| 0.18 | < 0.098 | 0.168 |  | CNc1cc(F)cc2c1[nH]c1ncc(-c3cnc4c(c3)c(=O)c(C(=O)O)cn4NC)c(N3CC[C@H]4CCN(C)C4C3)c12 (some centres unmarked) [Example 1.212] | 33900 |  |  |  |
| 0.171 | < 0.098 | < 0.098 |  | CNc1cc(F)c(F)c2c1[nH]c1ncc(-c3cnc4c(c3)c(=O)c(C(=O)O)cn4C)c(N3CC[C@H](O)C3)c12 [Example 1.163] | 28800 |  |  |  |
| 0.155 | < 0.098 | < 0.098 | 301 (≈ 540 µM) | CNc1cc(F)cc2c1[nH]c1ncc(-c3cnc4c(c3)c(=O)c(C(=O)O)cn4C)c(N3CCCC(CN(C)C)C3)c12 (centres unmarked) [Example 1.94] | 38700 |  |  |  |
| 0.102 | < 0.098 | < 0.098 | 66 (≈ 118 µM) | CNc1cc(F)c(F)c2c1[nH]c1ncc(-c3cnc4c(c3)c(=O)c(C(=O)O)cn4C)c(N3CCC[C@@H](N(C)C)C3)c12 [Example 3.06A] | 52500 |  |  |  |
